The source of these data is PMC9520749, “Novel angiotensin-converting enzyme and pancreatic lipase oligopeptide inhibitors from fermented rice bran” (Frontiers in Nutrition, 2022).

In experiment [1] the target is T1, pancreatic lipase (Sus scrofa, UniProt P00591).
T1 construct: purchased Sigma Co., St. Louis, Missouri, United States
T1 sequence (P00591 1-450): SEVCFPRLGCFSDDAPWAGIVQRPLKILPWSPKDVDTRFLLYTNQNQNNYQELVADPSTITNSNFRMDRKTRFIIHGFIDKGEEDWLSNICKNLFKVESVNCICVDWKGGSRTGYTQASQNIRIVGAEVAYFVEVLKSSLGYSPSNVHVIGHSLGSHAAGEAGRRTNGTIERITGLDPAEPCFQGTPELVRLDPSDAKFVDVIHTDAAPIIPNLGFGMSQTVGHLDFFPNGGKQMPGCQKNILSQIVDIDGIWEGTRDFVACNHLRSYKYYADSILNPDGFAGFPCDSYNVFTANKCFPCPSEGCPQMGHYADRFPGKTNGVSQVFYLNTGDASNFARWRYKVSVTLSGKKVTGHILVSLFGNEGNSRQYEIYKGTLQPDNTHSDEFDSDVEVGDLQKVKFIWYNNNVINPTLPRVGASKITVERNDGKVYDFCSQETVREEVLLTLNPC
The experiment can be described thus: In vitro simulated gastrointestinal digestion, then pancreatic lipase inhibition. It counts as biochemical. The settings on record: 1 mg/mL, read-out: inhibition rate against pancreatic lipase. The protocol:
(§1) According to the method of Magdalena mendoza-s á nchez ([1]). In the blank group, 100 μL of 0.1 M sodium phosphate buffer (pH 7.2), 50 μL pNPB (5 mM), and 50 μL pancreatic lipase (0.2 U/mL) were added to a 96-well plate. In the blank control group, 150 μL sodium phosphate buffer and 50 μL pNPB were added to the 96-well plate. In the sample group, 50 μL sodium phosphate buffer, 50 μL pNPB, 50 μL sample (1 mg/mL), and 50 μL pancreatic lipase were added to the 96-well plate. For the sample blank group, 100 μL sodium phosphate buffer, 50 μL pNPB, and 50 μL sample were added to the 96-well plate. At 37°C, the absorbance values A, B, C, and D were measured at 405 nm after 30 min of reaction. The absorbance values were incorporated into the following formula to calculate the inhibition rate of polypeptide against pancreatic lipase activity:
(§2) Simulated GI digestion through an in vitro pepsin–pancreatin hydrolysis method was carried out ([23]). The oligopeptides GLLGY, HWP, and VYGF were re-dissolved (3% w/v in distilled water) and adjusted to pH 2.0 with 1 M HCl. Then, pepsin (4% weight as received/weight of protein in the powder) was added. The mixture was incubated at 37°C for 2 h. The pH was then adjusted to 5.3 with 0.9 M NaHCO3 solution and further to pH 7.5 with 1 M NaOH. Pancreatin was added (4% weight as received/weight of protein in the powder), and the mixture was further incubated at 37°C for 2 h. To terminate the digestion, the test tubes were kept in boiling water for 10 min. The gastric digests (GDs) and gastric-intestinal digests (GIDs) were obtained through centrifugation (8000 × g, 10 min, 4°C), and then, the supernatants were collected, lyophilized, sealed in plastic bags, and stored at 4°C until further analysis. The ACE and pancreatic lipase inhibitory activities of GDS and GID were measured at a concentration of 1 mg/mL, and the results were expressed as activity (%) relative to that without any treatment (control group, 100%). All determinations were made in triplicate.

The target of experiment [2] is T1, pancreatic lipase. Briefly: Inhibitory kinetic analysis of pancreatic lipase (Lineweaver-Burk). It counts as biochemical. The conditions noted are these: sample 1 mg/mL, pNPB 1-5 mM; read-out: inhibitory binding constant (Ki), pancreatic lipase. The protocol: (§3) The inhibition kinetics of oligopeptides GLLGY, HWP, and VYGF on ACE and pancreatic lipase were tested to determine their efficiencies. For the ACE inhibition test, the concentration of the samples GLLGY, HWP, and VYGF was 1 mg/mL, and the concentrations of the substrate FAPGG were 0.2, 0.4, 0.6, 0.8, and 1 mM. For the pancreatic lipase inhibition test, the sample HWP concentration was 1 mg/mL and the substrate pNPB concentrations were 1, 2, 3, and 5 mM. The initial velocity data were used to construct the Lineweaver–Burke plots to determine the enzyme Km (Michaelis constant), Vmax (maximum velocity), and Ki (inhibitory binding constant) ([8], [22]).

The target of experiment [3] is T2, ACE (Homo sapiens, UniProt P12821).
T2 construct: purchased Sigma Co., St. Louis, Missouri, United States
T2 sequence (P12821 30-1306): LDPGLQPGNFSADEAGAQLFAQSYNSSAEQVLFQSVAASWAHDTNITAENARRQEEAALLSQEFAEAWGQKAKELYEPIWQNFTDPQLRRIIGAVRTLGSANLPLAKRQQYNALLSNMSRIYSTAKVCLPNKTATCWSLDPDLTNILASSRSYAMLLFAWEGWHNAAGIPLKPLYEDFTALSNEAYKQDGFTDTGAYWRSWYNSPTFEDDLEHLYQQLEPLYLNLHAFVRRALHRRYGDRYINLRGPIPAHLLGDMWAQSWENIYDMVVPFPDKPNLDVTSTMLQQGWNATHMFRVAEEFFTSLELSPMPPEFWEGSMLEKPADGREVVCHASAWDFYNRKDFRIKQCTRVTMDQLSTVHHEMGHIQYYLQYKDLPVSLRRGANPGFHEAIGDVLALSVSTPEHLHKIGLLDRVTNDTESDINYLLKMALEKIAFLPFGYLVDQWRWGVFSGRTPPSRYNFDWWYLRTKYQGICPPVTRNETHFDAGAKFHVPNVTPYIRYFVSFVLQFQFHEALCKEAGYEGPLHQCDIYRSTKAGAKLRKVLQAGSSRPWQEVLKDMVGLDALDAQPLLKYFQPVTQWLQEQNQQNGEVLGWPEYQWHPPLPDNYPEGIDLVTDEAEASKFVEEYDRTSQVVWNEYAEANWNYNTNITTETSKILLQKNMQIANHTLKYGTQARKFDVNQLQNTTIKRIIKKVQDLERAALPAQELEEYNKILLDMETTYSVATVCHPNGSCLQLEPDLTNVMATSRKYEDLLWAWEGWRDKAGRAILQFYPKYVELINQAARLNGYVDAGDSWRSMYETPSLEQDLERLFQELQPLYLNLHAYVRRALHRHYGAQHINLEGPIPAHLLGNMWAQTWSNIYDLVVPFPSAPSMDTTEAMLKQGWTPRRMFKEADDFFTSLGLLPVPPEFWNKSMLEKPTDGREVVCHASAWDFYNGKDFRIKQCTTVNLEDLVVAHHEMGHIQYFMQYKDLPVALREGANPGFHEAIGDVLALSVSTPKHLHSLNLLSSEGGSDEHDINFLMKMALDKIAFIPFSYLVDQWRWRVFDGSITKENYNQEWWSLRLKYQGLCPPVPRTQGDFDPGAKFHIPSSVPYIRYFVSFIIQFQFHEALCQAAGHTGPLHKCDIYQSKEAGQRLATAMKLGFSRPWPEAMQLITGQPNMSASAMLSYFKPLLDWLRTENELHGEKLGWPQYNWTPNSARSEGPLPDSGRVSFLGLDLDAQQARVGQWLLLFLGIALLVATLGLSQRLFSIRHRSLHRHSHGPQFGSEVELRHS
The experiment can be described thus: ACE inhibitory activity of peptides (FAPGG substrate, absorbance 340 nm). It counts as biochemical. Here is the method:
(§4) The polypeptide was synthesized by Hangzhou Dangang Biotechnology Co., Ltd (Hangzhou, China). Human ACE, N-[3-(2-furanyl) acryloyl]-l-phenylalanyl glycyl glycine (FAPGG), p-nitrophenyl butyrate (pNPB), and pancreatic lipase were purchased from Sigma Co., St. Louis, Missouri, United States.
(§5) According to the experimental method of Yu Fu et al. ([8]), with slight changes, 50 μL ACE (0.1 U/mL, prepared from borate buffer with pH 8.3 and 80 mM), 50 μL FAPGG (1 mM), and 100 μL borate buffer (80 mM, pH 8.3) were added to a 96-well plate. Then, 100 μL borate buffer was replaced with 1 mg/mL sample, which are three groups of parallel samples, and the initial absorbance values a1 and b1 were measured at 340 nm. Then, the plate was placed at 37°C and reacted for 30 min. The absorbance values a2 and b2 were measured at 340 nm (Multiskan GO, Thermo Scientific, Waltham, MA, USA). The absorbance value was incorporated into the following formula to calculate the inhibition rate of polypeptide against ACE activity:
(1) ACEinhibitionrate (%)=(A-B)/A×100
Where a1 and b1 are initial absorbance values of the blank and sample groups, respectively. a2 and b2 are absorbance values of the blank and sample groups after the reaction, respectively. A = a1–a2; B = b1–b2.

The target in experiment [4] is T2, ACE. Briefly: Inhibitory kinetic analysis of ACE (Lineweaver-Burk). It counts as biochemical. The conditions noted are these: sample 1 mg/mL, FAPGG 0.2-1 mM; read-out: inhibitory binding constant (Ki), ACE. Here is the method: as §3
Experiment [5] has as its target T1, pancreatic lipase. Briefly: Pancreatic lipase inhibitory activity of peptides (pNPB substrate, absorbance 405 nm). The experiment is classed as biochemical. The protocol: as §4, §1
(2) Pancreaticlipaseinhibitionrate (%)=(1-C-D/A-B)×100
Where A, B, C, and D are absorbance values of the blank, blank control, sample, and sample blank groups, respectively.

Experiment [6] addresses T2, ACE. Briefly: In vitro simulated gastrointestinal digestion, then ACE inhibition. The conditions noted are these: 1 mg/mL, read-out: inhibition rate against ACE. The experiment is classed as biochemical. The protocol: as §5, §2
In experiment [7] the target is T1, pancreatic lipase. The settings on record: cited from earlier work.

Like-named read-outs stand apart in the source and are kept apart here. Ends that are not written are not given here. Peptide text beside a SMILES is read from it.

As to `N[C@@H](Cc1c[nH]cn1)C(=O)N[C@@H](Cc1c[nH]c2ccccc12)C(=O)N1CCC[C@H]1C(=O)O` [HWP] (H-His-Trp-Pro-OH), the inhibition at 1000 µg/mL was 18.4% at pancreatic lipase [1] (after GI digestion); 19.9% at pancreatic lipase [1] (after gastric digestion); 21.5% on pancreatic lipase [1] (without GI digestion); 20% on pancreatic lipase [5] (at 1 mg/mL, read-out: pancreatic lipase inhibition rate); 53.6% at ACE [6] (after GI digestion); 54.4% at ACE [6] (after gastric digestion). At ACE [6] (without GI digestion), the inhibition at 1000 µg/mL was 57%. Further, the Ki is 2.58 mM on pancreatic lipase [2] and 1.34 mM at ACE [4]. The concentration for half-maximal inhibition (IC50) against ACE [3] is 2.28 mM; at pancreatic lipase [5] (gradient test of concentration, Figure 1C), 9.01 mM.
At ACE [3], `CC(C)[C@H](N)C(=O)N[C@@H](Cc1ccc(O)cc1)C(=O)NCC(=O)N[C@@H](Cc1ccccc1)C(=O)O` [VYGF] (H-VYGF-OH) had a concentration for half-maximal inhibition (IC50) of 2.06 mM. Moreover, the Ki at ACE [4] is 0.933 mM. For the same compound, the inhibition at 1000 µg/mL is 49.1% at ACE [6] (after GI digestion), 50.9% on ACE [6] (after gastric digestion) and 54.8% at ACE [6] (without GI digestion).
Take `O=c1cc(-c2ccc(O)cc2)oc2cc(O)cc(O)c12` [apigenin]: at pancreatic lipase [7], the IC50 was 450 ± 30 µM and the “type of pancreatic lipase inhibition” value is recorded as “competitively inhibited”.
Consider GLLGY [GLLGY], for which half-maximal inhibition against ACE [3] (IC50) required 1.92 mM. On ACE [4], the inhibition constant Ki is 1.57 mM. The figures for the inhibition at 1000 µg/mL at ACE [6] (after GI digestion), on ACE [6] (after gastric digestion) and on ACE [6] (without GI digestion) were 51.3%, 52.6% and 55.8%, respectively.
Leu-Pro: the “pancreatic lipase inhibitory activity” value at pancreatic lipase [7] (peptide of bovine and camel casein hydrolysates) is on record as “exhibits pancreatic lipase inhibitory activity”.
For the compound VSTDVNIE [cocoa peptide], the “inhibitory effect on pancreatic lipase” value in the experiment with pancreatic lipase [7] (cocoa peptides) is reported as “had inhibitory effect”.

As usually defined, the inhibition is how much of the control response was suppressed. A word on the Ki: it is the equilibrium dissociation constant of an inhibitor or competing ligand from its target. A word on the IC50: it is the concentration at which inhibition is half-maximal.
